These results are taken from patent US20100286139A1, “AMINO PYRAZOLE COMPOUND” (ELI LILLY AND COMPANY, priority 2008, published 2010).

Usually IC50 stands for the concentration needed to halve the response being measured.

This experiment has as its target T1, JAK2 (Homo sapiens, UniProt O60674).
T1 construct: endogenous in cells; host or cells: TF-1 (human erythroid leukemia) cells, EPO-stimulated
Put plainly: JAK2 EPO-TF1/pSTAT5 cell-based assay (Cellomics ArrayScan HCS). To be noted: TF-1 cells, EPO 1.6 U/mL stimulated, n=4; read-out: relative IC50, inhibition of pSTAT5. From the text:
JAK2 EPO-TF1/pSTAT5 cell-based assay mimics the constitutive activation of JAK2-STAT5 in erythroid progenitor cells, which drives the overproduction of red blood cells, a marker of polycythemia vera (PV).
TF-1 (human erythroid leukemia) cells are maintained in RPMI 1640 (RPMI-1640 was developed by Moore et. al. at Roswell Park Memorial Institute. The formulation is based on the RPMI-1630 series of media utilizing a bicarbonate buffering system and alterations in the amounts of amino acids and vitamins.) with 10% fetal bovine serum (FBS), 0.075% sodium bicarbonate, 1 mM sodium pyruvate, 1× antibiotic/antimycotic (Invitrogen, Carlsbad, Calif.) and 0.45% glucose. The medium is supplemented with GM-CSF (granulocyte-macrophage colony-stimulating factor) at a final concentration of 2 ng/mL. Cells are kept at 37° C. with 5% CO2. Cells are starved in serum free medium to remove endogenous growth factors. TF-1 cells are counted and cells are collected to seed 2×10^7 cells per 96-well plate at a density of 2×10^5 cells per well. […]
To perform the assay, serum-starved cells are collected and washed once with unsupplemented RPMI 1640 medium. […] An aliquot of 200 μL of 1 to 10 dilution of Mouse anti-pSTAT5 (pY694) Alexa Fluor 647® in fluorescence activated cell sorting (FACS) buffer is added to the cells. […]

T1 sequence (O60674 whole entry): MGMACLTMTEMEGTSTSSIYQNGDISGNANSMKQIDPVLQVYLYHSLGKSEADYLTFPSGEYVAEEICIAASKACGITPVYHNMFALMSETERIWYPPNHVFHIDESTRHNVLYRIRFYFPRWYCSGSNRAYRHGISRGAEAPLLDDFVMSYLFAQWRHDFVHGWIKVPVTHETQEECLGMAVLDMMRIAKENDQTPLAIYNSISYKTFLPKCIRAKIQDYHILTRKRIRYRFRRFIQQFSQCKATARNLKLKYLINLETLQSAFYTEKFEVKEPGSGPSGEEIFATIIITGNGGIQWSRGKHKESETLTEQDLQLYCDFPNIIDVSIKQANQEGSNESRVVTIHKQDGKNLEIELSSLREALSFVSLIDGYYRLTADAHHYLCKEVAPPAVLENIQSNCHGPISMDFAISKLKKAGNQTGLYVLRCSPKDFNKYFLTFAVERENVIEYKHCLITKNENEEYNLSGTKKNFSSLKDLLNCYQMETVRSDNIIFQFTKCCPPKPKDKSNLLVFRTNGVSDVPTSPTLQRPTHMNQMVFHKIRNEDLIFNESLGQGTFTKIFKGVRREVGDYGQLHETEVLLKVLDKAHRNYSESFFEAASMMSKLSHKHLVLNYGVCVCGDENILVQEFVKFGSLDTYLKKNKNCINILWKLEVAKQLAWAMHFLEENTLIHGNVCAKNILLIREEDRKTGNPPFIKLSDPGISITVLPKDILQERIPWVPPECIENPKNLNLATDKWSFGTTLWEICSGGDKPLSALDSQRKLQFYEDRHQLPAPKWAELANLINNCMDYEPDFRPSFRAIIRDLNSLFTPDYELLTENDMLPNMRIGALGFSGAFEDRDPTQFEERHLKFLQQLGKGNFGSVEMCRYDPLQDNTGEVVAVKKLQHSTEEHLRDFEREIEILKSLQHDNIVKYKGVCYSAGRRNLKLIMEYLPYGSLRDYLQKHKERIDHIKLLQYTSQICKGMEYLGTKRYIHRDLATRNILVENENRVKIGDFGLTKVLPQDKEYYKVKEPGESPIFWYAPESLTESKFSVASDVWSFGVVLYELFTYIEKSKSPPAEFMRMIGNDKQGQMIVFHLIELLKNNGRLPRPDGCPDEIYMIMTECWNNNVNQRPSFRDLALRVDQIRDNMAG

As for `Cc1cc(Nc2cc(CN3CCOCC3)c3nc(C)c(Cc4ccc(Cl)cc4F)n3n2)n[nH]1` [3-(4-Chloro-2-fluorobenzyl)-2-methyl-N-(5-methyl-1H-pyrazol-3-yl)-8-(morpholinomethyl)imidazo[1,2-b]pyridazin-6-amine], the IC50 was 0.033 µM.
